Reference: the NIST ThermoML archive (doi:10.1021/je700152c)

Test: molar heat capacity at saturation pressure; xn = mol fraction of the nth substance listed

CCCCn1cc[n+](C)c1.Cc1ccc(S(=O)(=O)[O-])cc1 [1-butyl-3-methylimidazolium tosylate] + O
Settings | molar heat capacity [J/K/mol]
246.29 K, Crystal, x1 = 0.3 | 181.97
247.04 K, Crystal, x1 = 0.37 | 195.61
247.05 K, Crystal, x1 = 0.83 | 303.46
247.42 K, Crystal, x1 = 0.3 | 183.98
248.02 K, Metastable crystal, x1 = 0.83 | 322.49
248.32 K, Crystal, x1 = 0.37 | 197.76
248.55 K, Crystal, x1 = 0.3 | 185.99
249.21 K, Crystal, x1 = 0.83 | 306.59
249.59 K, Crystal, x1 = 0.37 | 199.9
249.68 K, Crystal, x1 = 0.3 | 188.1
249.95 K, Metastable crystal, x1 = 0.83 | 325.36
250.8 K, Crystal, x1 = 0.3 | 190.22
250.86 K, Crystal, x1 = 0.37 | 202.18
251.37 K, Crystal, x1 = 0.83 | 309.46
251.87 K, Metastable crystal, x1 = 0.83 | 328.49
251.91 K, Crystal, x1 = 0.3 | 192.75
252.13 K, Crystal, x1 = 0.37 | 204.32
253.03 K, Crystal, x1 = 0.3 | 194.97
253.39 K, Crystal, x1 = 0.37 | 206.85
253.52 K, Crystal, x1 = 0.83 | 312.59
253.79 K, Metastable crystal, x1 = 0.83 | 331.88
254.13 K, Crystal, x1 = 0.3 | 197.41
254.64 K, Crystal, x1 = 0.37 | 209.37
255.24 K, Crystal, x1 = 0.3 | 200.05
255.66 K, Crystal, x1 = 0.83 | 315.71
255.7 K, Metastable crystal, x1 = 0.83 | 335.27
255.89 K, Crystal, x1 = 0.37 | 212.02
256.33 K, Crystal, x1 = 0.3 | 202.69
257.13 K, Crystal, x1 = 0.37 | 214.67
257.42 K, Crystal, x1 = 0.3 | 205.55
257.6 K, Metastable crystal, x1 = 0.83 | 339.18
257.79 K, Crystal, x1 = 0.83 | 318.84
258.37 K, Crystal, x1 = 0.37 | 217.57
258.51 K, Crystal, x1 = 0.3 | 208.4
259.5 K, Metastable crystal, x1 = 0.83 | 342.83
259.59 K, Crystal, x1 = 0.3 | 211.36
259.6 K, Crystal, x1 = 0.37 | 220.6
259.92 K, Crystal, x1 = 0.83 | 322.23
260.66 K, Crystal, x1 = 0.3 | 214.43
260.83 K, Crystal, x1 = 0.37 | 223.76
261.38 K, Metastable crystal, x1 = 0.83 | 346.22
261.73 K, Crystal, x1 = 0.3 | 217.6
262.04 K, Crystal, x1 = 0.83 | 325.62
262.05 K, Crystal, x1 = 0.37 | 227.04
262.8 K, Crystal, x1 = 0.3 | 221.09
263.25 K, Metastable crystal, x1 = 0.83 | 349.61
263.26 K, Crystal, x1 = 0.37 | 230.45
263.85 K, Crystal, x1 = 0.3 | 224.58
264.15 K, Crystal, x1 = 0.83 | 329.27
264.46 K, Crystal, x1 = 0.37 | 233.98
264.9 K, Crystal, x1 = 0.3 | 228.28
265.12 K, Metastable crystal, x1 = 0.83 | 353.26
265.66 K, Crystal, x1 = 0.37 | 238.02
265.94 K, Crystal, x1 = 0.3 | 232.09
266.24 K, Crystal, x1 = 0.83 | 333.18
266.85 K, Crystal, x1 = 0.37 | 241.93
266.97 K, Crystal, x1 = 0.3 | 236
266.99 K, Metastable crystal, x1 = 0.83 | 356.38
268 K, Crystal, x1 = 0.3 | 240.55
268.03 K, Crystal, x1 = 0.37 | 246.09
268.33 K, Crystal, x1 = 0.83 | 337.35
268.85 K, Metastable crystal, x1 = 0.83 | 360.03
269.01 K, Crystal, x1 = 0.3 | 244.56
269.2 K, Crystal, x1 = 0.37 | 250.51
270.02 K, Crystal, x1 = 0.3 | 249.64
270.37 K, Crystal, x1 = 0.37 | 255.18
270.4 K, Crystal, x1 = 0.83 | 342.31
270.7 K, Metastable crystal, x1 = 0.83 | 363.68
271.02 K, Crystal, x1 = 0.3 | 254.4
271.52 K, Crystal, x1 = 0.37 | 259.98
272.01 K, Crystal, x1 = 0.3 | 258.84
